Experiments:
[1] = Open-label 8-week escitalopram treatment trial, depressive symptoms by MADRS; type: in vivo, human; settings: escitalopram 10-20 mg daily, week 8
Excerpt: 95 participants were included in this study. Data were collected as part of the CAN-BIND 1 project (Lam et al., 2016). Participants were outpatients aged 18-60 years of age, and met DSM-IV-TR (2000) criteria for major depressive episode (MDE) in MDD, confirmed by the Mini international Neuropsychiatric inventory (MINI) (Sheehan et al., 1998). Data were gathered across four study sites: University Health Network, Centre for Addiction and Mental Health in Toronto, Queen's University in Kingston, Ontario, Canada, and University of British Columbia in Vancouver, British Columbia, Canada. Study procedures were approved by research ethics institutional review boards at each site. All participants signed written informed consent prior to participation. At study enrollment, all participants were experiencing a MDE duration≥3 months with a Montgomery Asberg Depression Rating Scale (MAD RS) score≥24. All participants were free of psychotropic medications for at least 5 half-lives before baseline Visit 1. Participants were excluded if they had: 1) any Axis I diagnosis other than MDD, that was considered the primary diagnosis; 2) diagnosis of Bipolar Disorder Type I or II; 3) a significant Axis II diagnosis (borderline, antisocial); 4) high suicidal risk, 5) substance dependence/abuse in the past 6 months; 6) presence of significant neurological disorders, 7) head trauma, or 8) other unstable medical condition. Exclusionary criteria related to the medications included: having failed four or more adequate pharmacological interventions, having started psychological treatment within the past 3 months with the intent of continuing the treatment, previously having failed escitalopram treatment or showing intolerance to escitalopram, and being at risk for hypomanic switch (i.e. with a history of antidepressant induced hypomania). In addition, female participants who were pregnant or breastfeeding were excluded. […] The study period was eight weeks and participants were assessed with MADRS every 2 weeks starting from before administration of study medication (baseline). […]

[2] = Resting-state eyes closed EEG multi-scale entropy (MSE) during escitalopram treatment; type: in vivo, human
Procedure: Subjects were instructed to sit quietly in a testing room, while 8 minute of resting-state eyes closed EEG were recorded. Subjects were instructed to remain still, reduce eye blinks or movement to a minimum, and refrain from falling asleep.
Data were imported into MATLAB (The Math Works. Inc. Natick, MA, USA) for preprocessing. The open source EEGLAB toolbox version 12.0 (Delorme and Makeig, 2004) were used for data import. The EEG signals were epoched into segments of two seconds duration. Then a standardized custom-made and stream-lined open source software develop by our team, EEGERP toolbox (http:www.tmseeg.com/multisiteprojects), was used to preprocess the data in 6 steps as described elsewhere (Farzan et al., 2017). All data were brought down to sampling rate of 512 Hz for consistency across all sites, and average re-referenced in the final preprocessing step.
MSE was examined identical to a prior publication (Farzan et al., Brain 2016). […] First, for a given time series {xi,x2, . . . xN}, the multiple coarse-grained time series {y1^(τ), y2^(τ), . . . , yN^(τ)} at scale factor τ were calculated by averaging the data points within non-overlapping windows of increasing length τ. Each element of the coarse-grained time series yj^(τ), was calculated according to the equation:
[formula] […] Second, the degree of predictability was measured for each of the multiple coarse-grained time series {y1^(τ), y2^(τ), . . . , yN^(τ)} using SampleEn. SampleEn was calculated according to the equation: SampleEn(r,m,M)=−In(C(m+1)/C(m)) (2) where C(m) is the total number of pairs of in consecutive similar data points, C(m+1) is the total number of pairs of m+1 consecutive similar data points in the multiple coarse-grained time series. SampleEn quantifies the variability of time series by estimating the predictability of amplitude patterns across a time series. […] MSE was calculated for a 30 second continuous epoch.” […]

[3] = six months of treatment; specifically in younger adults; cited from earlier work

Row | Structure (SMILES) | MADRS Post Week8 (mean +/− std) ([1]; All Groups (n = 95)) | MADRS Post Week8 (mean +/− std) ([1]; Non-responders (n = 50)) | MADRS Post Week8 (mean +/− std) ([1]; Responders (n = 45)) | Change in MSE pre (baseline) to post treatment (week 8) ([2]; non-responders) | Change in MSE at week 2 relative to pre treatment (baseline) ([2]; non-responders, scale factor>18, lateral frontal, fronto-temporal, parieto-occipital regions, clusters p<0.05) | Change in MSE pre (baseline) to post treatment (week 8) ([2]; responders, fronto-parietal brain regions, cluster p=0.09) | Effect on excess complexity (Lempel-Ziv Complexity) in depression [3]
1 | CN(C)CCC[C@@]1(c2ccc(F)cc2)OCc2cc(C#N)ccc21 [Escitalopram] | 15.4 +/− 9.7 | 22.3 +/− 7.18 | 7.62 +/− 5.24 | No significant changes | reduction of MSE in coarse time-scales | reduction of MSE in fine time-scales | 
2 | CN1CCN2c3ncccc3Cc3ccccc3C2C1 (stereo not shown) [mirtazapine] |  |  |  |  |  |  | normalized the excess complexity in depression

Reference: patent US12082933B2, “Methods of using brain temporal dynamics” (priority 2016, dated 2024)
